Assay results published in US10149833B2, “Small molecule, indirubin-3-oxime, for prevention and treatment of bone disease” (Industry-Academic Cooperation Foundation, Yonsei University, priority 2013, dated 2018).
Entries after “also recorded” stand apart in the source; their conditions may differ.

What was measured:
growth plate = growth plate activity in 7-week-old mice treated for 2 weeks; format: in vivo, C57BL/6 mice; details: treated 2 weeks
Method: (§1) Two and six-week-old C57BL/6 mice, purchased from KOATECH (Gyeonggi-do, South Korea), were cared for in accordance with the guidelines established by the Institutional Animal Care and Use Committee at Yonsei University. The mice were divided into a control group and an experimental group, and were adapted to the environment for 1 week. Afterwards, they were treated every day for 2 weeks with a solution containing 20% dimethyl […] and 30% ethanol, or with indirubin-3′-oxime (0.05 mg/kg, 0.1 mg/kg, and 0.5 mg/kg), via intraperitoneal injection. Two weeks later, the tibiae were separated from mice, and then the muscles were separated and removed, after which the bones were fixed using 4% formaldehyde. The bones were treated for 2 weeks with a 10% EDTA solution for the decalcification process. The EDTA solution was changed every two days.
(§2) The tissue-cultured embryo tibiae and the animal-tested tibiae were dewaxed in xylene, and were rehydrated in a stepwise-diluted ethanol solution. The tibial tissue, which was separated from 15.5-embryonic-day-old ICR mice and then tissue-cultured, was stained using the safranin staining procedure. Staining was carried out for 25 min in a 0.02% fast green solution, and after brief dipping in acetic acid, was again carried out for 7 min in a 0.1% safranin solution. Meanwhile, the tibial tissue that was animal-tested and decalcified in EDTA was stained via the hematoxylin-eosin staining procedure. The tissue was stained in a hematoxylin solution for 10 min and then rinsed in running water for 10 min. After being briefly dipped in a solution comprising 0.1% hydrochloric acid and 70% ethanol, the tissue was stained for 30 sec in an eosin solution. The stained tibial tissues again underwent a dehydration process in the stepwise-diluted ethanol solution and were dewaxed in xylene.
The tibiae that underwent a dewaxing process were dehydrated. After paraffin blocks were formed, the tissues were sectioned at 4-μm thickness. The sectioned tissues were rehydrated, and then stained using immunofluorescence. […]

GSKβ = assay: Western blot in RCS cells, inactive GSKβ; format: cell-based, Rat; details: 24 hours treatment (FIG. 2A)
Method: (§3) Rat chondrosarcoma (RCS) cells were cultured in a Dulbecco's modified Eagle's medium (DMEM; Gibco, Grand Island, N.Y.), supplemented with 10% fetal bovine serum (FBS) and penicillin/streptomycin.
(§4) For Western blot analysis, cells were treated with indirubin-3′-oxime for 24 hours, cultured and reached to 70% confluency and then were harvested. After the harvested samples underwent cytolysis, the proteins were quantified, which was followed by electrophoresis using 10% or 12% SDA-PAGE gel. Afterwards, immunoblot was conducted using antibodies.
(§5) Indirubin-3′-oxime, a GSKβ inhibitor, is already known to increase the stability of β-catenin.

β-catenin [1] = assay: IHC analysis on ex vivo tibia tissues; format: cell-based, mice; details: ex vivo tibiae treated with the drug (FIG. 2C)
Method: (§6) The tibiae were separated from 15.5-embryonic-day-old C57BL/6 mice, and were incubated in a 24-well tissue culture dish for 7 days. The medium used was prepared by adding 10% FBS, 1 mM beta-polyglycerol disodium phosphate, 50 ng/ml ascorbic acid, 0.3 mg/ml L-glutamine, 0.2% BSA, 100 U/ml penicillin, and 100 μg/ml streptomycin to a minimal essential medium (α-MEM, Gibco). Then, the tibiae were separated from the mice. After being treated in the medium for 24 hours, the tibia was treated with a drug. The medium and the drug were changed every two days. The tibia length was measured before and after treatment with the drug. The tibial tissue, on which drug treatment was completed, was rinsed with PBS and then fixed using 4% formaldehyde.
(§7) The tibiae that underwent a dewaxing process were dehydrated. After paraffin blocks were formed, the tissues were sectioned at 4-μm thickness. The sectioned tissues were rehydrated, and then stained using immunofluorescence.
as §5

β-catenin [2] = assay: Western blot in RCS cells, β-catenin; format: cell-based, Rat; details: 24 hours treatment (FIG. 2A)
Method: as §3, §4, §5

ex vivo tibia = ex vivo tibia culture, tibia length and safranin staining; format: cell-based, C57BL/6 mice; details: 1 μM and 5 μM
Method: as §6, with “formaldehyde. The tissue-cultured embryo tibiae and the animal-tested tibiae were dewaxed in xylene, and were rehydrated in a stepwise-diluted ethanol solution. The tibial tissue, which was separated from 15.5-embryonic-day-old ICR mice and then tissue-cultured, was stained using the safranin staining procedure. Staining was carried out for 25 min in a 0.02% fast green solution, and after brief dipping in acetic acid, was again carried out for 7 min in a 0.1% safranin solution. Meanwhile, the tibial tissue that was animal-tested and decalcified in EDTA was stained via the hematoxylin-eosin staining procedure. […]” for “formaldehyde.”

tibia = tibia and growth plate length in mice dosed during a period of active growth; format: in vivo, C57BL/6 mice
Method: as §1, §2, §7
To understand whether indirubin-3′-oxime can actually produce an increase in bone length in mice, indirubin-3′-oxime was administered during a period of active growth, and its effect was examined (FIG. 4A). First of all, the effect on the activity of the growth plate in the middle of a period of growth was examined using the hematoxylin-eosin staining procedure (FIG. 4B).

β-catenin [3] = assay: ICC analysis (immunocytochemistry), β-catenin translocation into the nucleus; format: cell-based, Rat; details: RCS cells, 24 hours treatment (FIG. 2B)
Method: as §3
2.5×10^4 cells were adhered to a cover glass placed in a 12-well plate. Once securely attached, cells were treated with indirubin-3′-oxime for 24 hours, and then were rinsed with a phosphoric acid buffer solution. After adding 4% paraformaldehyde, cells were fixed at room temperature for 20 min. Then, proteins expressed in the cells were observed through cell membrane permeation, blocking, and immunofluorescent staining processes.
as §5

[4] = growth plate at 9 weeks (FIG. 3C)

O=C1Nc2ccccc2/C1=C1/Nc2ccccc2/C1=N\O [indirubin-3′-oxime]
amount of Ki67, cell proliferation marker (IHC) (growth plate; [4]): increase in the amount of Ki67 | stability of β-catenin in growth plate (IHC) (growth plate; [4]): increase in the stability of β-catenin | activity of the growth plate (hematoxylin-eosin staining) (growth plate; intraperitoneal, compared with control at 9 weeks (FIG. 3B)): inhibits growth plate senescence; also recorded: activity of the growth plate was still maintained | amount of inactive GSKβ (Western blot) (GSKβ): increasing the amount of inactive GSK3; also recorded: increasing the amount of inactive GSKβ | amount of β-catenin in the hypertrophic chondrocyte zone (IHC) (β-catenin [1]): amount of β-catenin markedly increased in the hypertrophic chondrocyte zone | stability of β-catenin (Western blot) (β-catenin [2]): increased the stability of β-catenin | length of resting zone, proliferating zone and hypertrophic chondrocyte zone (safranin staining) (ex vivo tibia; 6 days, ex vivo tibia (FIGS. 1C, 1D)): increase in the total length (the resting zone, the proliferating zone, and the hypertrophic chondrocyte zone) that depended on the concentration | increase in the total length of the tibia (ex vivo tibia; tibiae treated for 6 days, ex vivo culture (FIGS. 1A, 1B)): dose-dependently induces longitudinal bone growth; also recorded: increase in the total length depended on the concentration change | persistence of the bone length effect after growth has ceased (tibia; 13-week-old mice (FIGS. 4D, 4E)): lasts even in 13-week-old mice; also recorded: found to last even in 13-week-old mice | cell proliferation marker PCNA (tibia; mice dosed during period of active growth (FIG. 4B)): confirmed through PCNA | total bone length of the tibia (tibia; mice dosed during period of active growth (FIG. 4D)): increase in the total bone length of the tibia | length of each zone and total length of the growth plate (tibia; mice dosed during period of active growth, hematoxylin-eosin staining (FIGS. 4B, 4C)): increases not only the length of each zone but also the total length of the growth plate; also recorded: increase not only in the length of each zone but also in the total length of the growth plate | amount of β-catenin translocated into the nucleus (ICC) (β-catenin [3]): increase in the amount of β-catenin that was translocated into the nucleus
